According to ChEMBL document CHEMBL3714750, “Aryl sulfonamides” (2008):
Activity calls are given as the source filed them. The rule behind the calls is not given here.

test system: Mus musculus; assay: Inhibition of inflammatory bowel disease-associated growth retardation in MDR1a-knockout mouse at 50 mg/kg, sc dosed twice daily for 14 consecutive weeks starting at age 10 weeks; type: functional, organism-based

Compound	Activity
CC(C)(C)c1ccc(S(=O)(=O)Nc2ccc(Cl)cc2C(=O)c2ccncc2)cc1	Active

molecular target: T1, C-C chemokine receptor type 9 (Homo sapiens, UniProt P51686); assay: Antagonist activity against CCR9 in human MOLT4 cells assessed as inhibition of human recombinant TECK-induced calcium response pre-treated before TECK stimulation by Flou-4-AM dye based FLIPR assay; type: functional, cell-based, MOLT-4
T1 sequence (P51686 whole entry): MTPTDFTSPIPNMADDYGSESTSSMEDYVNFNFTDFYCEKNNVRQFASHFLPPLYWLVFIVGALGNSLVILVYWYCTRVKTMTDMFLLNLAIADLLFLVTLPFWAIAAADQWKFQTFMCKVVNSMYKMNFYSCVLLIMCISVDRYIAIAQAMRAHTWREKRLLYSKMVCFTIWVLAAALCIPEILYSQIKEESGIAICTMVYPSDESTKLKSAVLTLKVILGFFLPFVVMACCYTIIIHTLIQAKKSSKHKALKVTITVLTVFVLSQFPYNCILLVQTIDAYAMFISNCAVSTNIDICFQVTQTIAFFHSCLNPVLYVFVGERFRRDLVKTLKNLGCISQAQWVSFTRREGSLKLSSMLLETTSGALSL

IC50	Compound
< 1000 nM	CC(C)(C)c1ccc(S(=O)(=O)Nc2ccc(Cl)cc2C(=O)c2ccncn2)cc1
> 1000 nM	O=C(c1ccncc1)c1cc(Cl)ccc1NS(=O)(=O)c1ccc(N2CCS(=O)(=O)CC2)cc1
< 1000 nM	Cc1ccc(C(=O)c2cc(Cl)ccc2NS(=O)(=O)c2ccc(C(C)(C)c3ncco3)cc2)cn1
> 1000 nM	Cc1ccc(C(=O)c2cc(Cl)ccc2NS(=O)(=O)c2ccc(-c3cnc(C)o3)cc2)cn1
> 1000 nM	Cc1ccc(C(=O)c2cc(Cl)ccc2NS(=O)(=O)c2ccc(-c3nnc(C)o3)cc2)cn1
< 1000 nM	CC(C)(c1ccc(S(=O)(=O)Nc2ccc(Cl)cc2C(=O)c2ccc[n+]([O-])c2)cc1)c1ncco1
< 1000 nM	CC(C)(C)c1ccc(S(=O)(=O)Nc2ccc(Cl)cc2C(=O)c2ccccn2)cc1
< 1000 nM	C[C@@H]1CN(c2ccc(S(=O)(=O)Nc3ccc(Cl)cc3C(=O)c3cc[n+]([O-])cc3)cc2F)C[C@H](C)O1
> 1000 nM	O=C(c1ccncc1)c1cc(Cl)ccc1NS(=O)(=O)c1ccc(Cl)cc1
< 1000 nM	Cc1ccc(C(=O)c2cc(Cl)ccc2NS(=O)(=O)c2ccc(C(C)(C)c3cnco3)cc2)cn1
< 1000 nM	Cc1ccc(C(=O)c2cc(Cl)ccc2NS(=O)(=O)c2ccc(C(C)(C)C)cc2)cn1
< 1000 nM	CC(C)(C)c1ccc(S(=O)(=O)Nc2ccc(Cl)cc2C(=O)c2ccncc2)cc1
< 1000 nM	C[C@@H]1CN(c2ccc(S(=O)(=O)Nc3ccc(Cl)cc3C(=O)c3ccncc3)cc2F)C[C@H](C)O1

The remaining lines, values behind:

Compound	IC50
Cc1cc(C(=O)c2cc(Cl)ccc2NS(=O)(=O)c2ccc(C3(C)CCOCC3)cc2)cc[n+]1[O-]	< 1000 nM
CC(C)(c1ccc(S(=O)(=O)Nc2ccc(Cl)cc2C(=O)c2ccncc2)cc1)c1cocn1	< 1000 nM
CCOC(=O)CNC(=O)c1cc(Cl)ccc1NS(=O)(=O)c1ccc(OC)cc1	> 1000 nM
CC(C)(c1ccc(S(=O)(=O)Nc2ccc(Cl)cc2C(=O)c2cc[n+]([O-])cc2)cc1)c1cnco1	< 1000 nM
Cc1ccc(C(=O)c2cc(Cl)ccc2NS(=O)(=O)c2ccc(N3CCOCC3)cc2)c[n+]1[O-]	< 1000 nM
COC(=O)CCc1ccc(S(=O)(=O)Nc2ccc(Cl)cc2C(=O)c2ccc(C)[n+]([O-])c2)cc1	< 1000 nM
CN(C)C(=O)C(C)(C)c1ccc(S(=O)(=O)Nc2ccc(Cl)cc2C(=O)c2ccncc2)cc1	> 1000 nM
CC(C)(C)c1ccc(S(=O)(=O)Nc2ccc(Cl)cc2C(=O)c2nccs2)cc1	< 1000 nM
COc1ccc(S(=O)(=O)Nc2ccc(Cl)cc2C(=O)N2CCNCC2)cc1	> 1000 nM
Cc1cccc(C(=O)c2cc(Cl)ccc2NS(=O)(=O)c2ccc(-c3cnc(C)o3)cc2)n1	> 1000 nM
CS(=O)(=O)c1ccc(S(=O)(=O)Nc2ccc(Cl)cc2C(=O)c2ccc(Cl)[n+]([O-])c2)cc1	< 1000 nM
Cc1ccc(C(=O)c2cc(Cl)ccc2NS(=O)(=O)c2ccc(C(C)(C)C)cc2)c[n+]1[O-]	< 1000 nM
Cc1c(C(=O)c2cc(Cl)ccc2NS(=O)(=O)c2ccc(C(C)(C)C)cc2)ccc[n+]1[O-]	< 1000 nM
CC(C)(CO)c1ccc(S(=O)(=O)Nc2ccc(Cl)cc2C(=O)c2ccncc2)cc1	< 1000 nM
CC(C)Oc1ccc(S(=O)(=O)Nc2ccc(Cl)cc2C(=O)c2ccncc2)cc1	< 1000 nM
CC(C)Oc1ccc(S(=O)(=O)Nc2ccc(Cl)cc2C(=O)c2cccnc2)cc1	< 1000 nM
CCC(C)(C)c1ccc(S(=O)(=O)Nc2ccc(Cl)cc2C(=O)c2ccncc2)cc1	< 1000 nM
O=C(c1cccnc1)c1cc(F)c(F)cc1NS(=O)(=O)c1ccc(N2CCOCC2)cc1	< 1000 nM
CS(=O)(=O)c1ccc(S(=O)(=O)Nc2ccc(Cl)cc2C(=O)c2ccncc2)cc1	> 1000 nM
